The data set is described as follows: Modulated differential scanning calorimetry (MDSC/DSC), thermal stability / decomposition. It counts as physicochemical. Particulars: for onset of decomposition: MDSC data. From the text: Differential Scanning Calorimetry (DSC) measures heat flow as a function of time or temperature and is used to study material transformation whether they be physical, such as phase changes, or chemical, such as decomposition. There are several parameters that can be obtained from a DSC thermogram. In the present work, the focus was on the onset temperature, the temperature of the peak minimum, and the peak width. DSC information is useful in understanding the purity and nature of material. For example, when a pure crystalline substance melts, the melting point is sharp. In DSC, that sharpness is shown by a narrow melting peak in the thermogram. If there are impurities or defects in the crystalline nature, the melting takes place at lower temperatures and over a larger range of temperatures. In DSC, the impurities are shown by a lower onset temperature and peak temperature, and a broader peak in the thermogram. When there are discrete impurities, they can melt at their melting points. In DSC, discrete impurities can be shown by additional peaks in the thermogram.
While a decomposition curve is usually broader and can be more complicated, some of the same phenomena are seen as with melting. Impurities and defects will cause broader and lower temperature peaks. Discrete impurities can show their own decomposition peaks.
These were made at slightly different stoichiometries. The onset temperature, the temperature at peak minimum, and the peak width are labeled.
A general note: DSC measures the heat that a sample takes up or gives off during a temperature scan.

Where [1] appears, read: modulated DSC thermogram, spray-dried polymorph of PMC2, K:Mg ratio less than 4.0.

On to `O=C([O-])CC(O)(CC(=O)[O-])C(=O)[O-].O=C([O-])CC(O)(CC(=O)[O-])C(=O)[O-].[K+].[K+].[K+].[K+].[Mg+2]` [PMC2, potassium magnesium citrate], for which the onset of decomposition entry was “approximately 310 °C”. In addition, under setting [1], the “endothermic peak for decomposition: onset temperature” value is “greater than 320 °C”, the “endothermic peak for decomposition: peak minimum temperature” value was “greater than 327 °C” and the “endothermic peak for decomposition: peak width” value was “less than 9 °C”.

In the case of `O=C([O-])CC(O)(CC(=O)[O-])C(=O)[O-].O=C([O-])CC(O)(CC(=O)[O-])C(=O)[O-].[K+].[K+].[K+].[K+].[Mg+2]` [PMC, potassium magnesium citrate], the “DSC decomposition behaviour (in words)” value (spray-dried sample in a vented pan, compared to sample dried in an oven or at room temperature) is “decomposed at a much lower temperature and with a broader decomposition peak”.

In turn, `O=C([O-])CC(O)(CC(=O)[O-])C(=O)[O-].[K+].[K+].[K+]` [potassium citrate, reference compound] displayed an onset of decomposition of 260 °C. On to magnesium citrate [reference compound], for which the onset of decomposition was 250 °C.

The values are drawn from US20050197402A1 (priority 2004, published 2005).
